{
  "source": "patent US11890286B2",
  "about": "“Methods and compositions for treating cancer” (THE UNIVERSITY OF CHICAGO, priority 2018, dated 2024)",
  "key": {"[1]": {"test_system": "BM1 cells (BM1-NucLight Red)", "assay": "High-throughput chemotactic invasion assay of nuclear-labeled BM1 cells", "format": "cell-based, human", "details": "72 hours, single drug", "experimental": "High-throughput chemotactic invasion assays: For testing anti-invasive drug combinations, IncuCyte® ClearView 96-Well Chemotaxis plates (Essen BioScience) were used. 2000 cells per well were embedded in 2 mg/ml BME and plated onto the chemotaxis plate following the manufacturer's instructions. Media containing 2% FBS was used in both top and bottom chambers to maintain cell viability over 72 hours or more. 200 ng/ml human EGF (Bio-Techne, 236-EG-01M) was used as the chemotactic agent in the bottom chamber, and the control wells only had the vehicle for the chemotactic agent.\nThis assay is more accurate when nuclear-labeled cells are used. Therefore, BM1-mKate2 (nuclear red) cells were generated using IncuCyte® NucLight Red Lentivirus Reagent (Essen BioScience, Cat. No. 4478) following the manufacturer's instructions. After transduction, cells with the highest nuclear red signal intensity (top 25%) were sorted by FACS.\n(§1) The chemotaxis module in IncuCyte® can accurately count the number of cell in the top chamber and the bottom chamber of the ClearView plates separately. Invasive capability of the cells in the presence of various small molecule inhibitors was measured as the percentage of cells that moved to the bottom chamber over the period of 72 hours. The formula used for this calculation is (number of cells in the bottom chamber)/(number of cells in the bottom chamber+number of cells in the top chamber)×100. The total number of cells in the top and bottom chambers is used as a readout of proliferation, which was important for determining drug combinations that blocked invasion without affecting growth properties of the cells."}, "BM1 cells [2]": {"test_system": "BM1 cells", "assay": "3D proliferation of BM1 cells (total cell number in the invasion assay)", "format": "cell-based, human", "details": "BM1, 10 μM and above", "experimental": "as §1\n3D Cultures: For 3D proliferation experiments, we used Cultrex® 3D Basement Membrane Matrix, Reduced Growth Factor (Trevigen, Cat. No. 3445-005-01, Lot No 37353J16, Lot concentration: 15.51 mg/ml, referred to as BME). For all experiments, the cells in growth media were mixed with BME at a final concentration of 2 mg/ml. For 3D proliferation assays, 100 μl of the cell/BME mixture was dispensed into each well of a 96-well plate. Upon solidification of BME, 100 μl of growth media was added on top of the solidified gel. […] The growth of the cells was monitored in IncuCyte® Zoom or S3 models for the indicated duration of time."}, "orthotopic LMB tumors": {"test_system": "orthotopic LMB tumors", "assay": "Primary orthotopic LMB tumor growth in syngeneic mice", "format": "in vivo, mouse", "details": "single inhibitor; for primary LMB tumor growth determined by final tumor weight: syngeneic model, 10 mg/kg/day or lower", "experimental": "For primary tumor growth experiments, 2×10^6 BM1 cells, 5×10^5 LMB cells, or 1×10^6 […] cells were injected orthotopically near the mammary fat pad of athymic nude, C57B1/6, or C3-1-TAg-REAR mice, respectively. Tumor growth was monitored over time by caliper measurements of the width and length of tumors. Tumor volumes were calculated with the formula: For the in vivo studies involving MAPK inhibitors and the 4-drug MAPKi combination treatment, small molecule inhibitors were resuspended under sterile conditions. […] No. 91893)+50% saline. JNK inhibitor SP600125 and MEK inhibitor Trametinib were diluted in corn oil (Sigma, Cat. No. C8267). For the 4-drug combinatorial treatment, all inhibitors were dissolved in their own solvent at 4×higher concentration then the desired final concentration. Then, SB203580 and URMC-099 were mixed at a 1:1 ratio, reducing the concentration for each drug down to 2×. Similarly, SP600125 and Trametinib were mixed at a 1:1 ratio. These dual combination solutions were then filtered through 0.22 μm PES filter syringes to assure sterility. Each mouse received 50 μl of each dual combination on the same day, resulting in a total of 100 μl of drug mix (2 injections per mouse) with each drug at their desired 1×final concentration. […] All injections were intraperitoneal. For the tumor growth experiments with the MAPK inhibitors, tumors were allowed to reach the size 50-100 mm^3 size before the MAPKi treatment began. Then, the mice were treated with the respective MAPKi treatment (or the control) for up to 3 weeks. Tumor size was monitored twice a week with a caliper. For the metastasis assays, the tumor cells were treated with the 4-drug MAPKi combination at the in vitro doses for 24 hours prior to injections to allow for anti-metastatic reprogramming of the cells. Homing to metastatic tissues upon intracardiac or tail vein injections can take up to 48 hours. […] After the inoculation, the mice were treated with the inhibitors daily for up to 3 weeks until the experimental endpoints discussed above were reached."}, "JNK": {"test_system": "JNK", "assay": "Signaling study in vitro, immunoblot of JNK phosphorylation in TNBC cell lines", "format": "cell-based, human and mouse", "experimental": "(§2) Signaling studies in vitro: In order to investigate the changes in stress kinase signaling upon stress in the presence of RKIP, or small molecule inhibitors of the MAPKs, cells were plated at sub-confluence. Once they reached roughly 70% confluence, they were starved overnight (16-24 hours) in serum-free media, and then induced with either anisomycin (Sigma-Aldrich, Cat. No. A9789) at 25 ng/ml or 100 ng/ml final concentration, or by 10% serum for 30 minutes to activate MAPK pathways. In studies with small molecule inhibitors of the MAPK pathway, all inhibitors were re-suspended in DMSO and used at indicated concentrations. The cells were pre-treated with the inhibitors in serum-free media for 30 minutes after overnight starvation, immediately before induction with anisomycin or serum for 30 minutes. In this case, the inducing agent was directly added to the pre-treatment media that already had the inhibitors, or the pre-treatment media was replaced by fresh media containing the inducer and the inhibitors. […]\n(§3) Protein isolation and western blots: Cultured cells were washed with cold PBS and lysed in RIPA buffer with protease inhibitors (Millipore Sigma, Cat. No. 539134) and phosphatase inhibitors (GoldBio, Cat. No. GB-450). […] Supernatant was collected and the protein concentration measured using the Bradford assay. […]"}, "MB436 cells": {"test_system": "MB436 cells", "assay": "Chemotactic invasion assay, MB436 cells", "format": "cell-based, human", "details": "increasing doses, single drug", "experimental": "(§4) Boyden Chamber Invasion Assay: Each Boyden chamber membrane (Fisher Scientific, Cat. No. 353097) was coated with a thin layer of BME (200 μl of 0.25 mg/ml stock, or total of 50 μg of BME per membrane) and incubated at 37° C. for 1 hour. Cells were trypsinized and centrifuged at 500×g for 5 minutes followed by two rounds of PBS washes to remove remaining serum-containing media. Then, the cells were resuspended in serum-free media and diluted to the desired concentration for plating onto the Boyden chambers. Each Boyden chamber received 20,000-100,000 cells in 300 μl serum-free media, depending on the cell line. 10% serum was used as the chemoattractant for these assays. For the experiments testing the effect of MAPK inhibitors on invasion, the cells were resuspended in drug-containing serum-free media immediately. After 16-24 hours, the membranes were stained with Calcein AM (Fisher Scientific, Cat. No. 354217) for 1 hour at 37° C. in the dark to stain for live cells. Cells that are in the top chamber were removed from the membrane with a wet cotton swab. Cells in the bottom chamber were dissociated from the membrane by incubating in cell dissociation buffer (Trevigen, Cultrex®, Cat. No. 3455-096-05) in a shaker at 37° C. for 1 hour. Calcein AM signal was measured in Perkin Elmer Victor X3 plate reader as a read-out of invaded cells."}, "p38": {"test_system": "p38", "assay": "Signaling study in vitro, immunoblot of p38 phosphorylation in TNBC cell lines", "format": "cell-based, human and mouse", "details": "anisomycin-induced human cell lines (BM1, MB436)", "experimental": "as §2, §3"}, "BM1 cells [3]": {"test_system": "BM1 cells", "assay": "Chemotactic invasion assay, BM1 cells", "format": "cell-based, human", "details": "increasing doses, single drug", "experimental": "as §4"}},
  "data": [
    {"smiles": "Oc1c2ccccc2c2c3c(cccc13)N=N2", "note": "[SP600125, 1,9-Pyrazoloanthrone]", "values": [
      {"measurement": "minimal dose at which the proliferation rates were unaffected while the invasive capabilities of the cells were at least partially blocked", "setting": "[1]", "result": 1, "unit": "µM"}
    ]},
    {"smiles": "O=C(O)c1ccc2c(c1)nc(Nc1cccc(Cl)c1)c1ccncc12", "note": "[CX-4945]", "values": [
      {"measurement": "effect on growth at the doses that blocked invasion", "setting": "BM1 cells [2]", "result": "growth-inhibitory"}
    ]},
    {"smiles": "CC(=O)Nc1cccc(-n2c(=O)n(C3CC3)c(=O)c3c(Nc4ccc(I)cc4F)n(C)c(=O)c(C)c32)c1", "note": "[Trametinib]", "values": [
      {"measurement": "minimal dose at which the proliferation rates were unaffected while the invasive capabilities of the cells were at least partially blocked", "setting": "[1]", "result": "0.001 to 0.01", "unit": "µM"},
      {"measurement": "primary LMB tumor growth", "setting": "orthotopic LMB tumors; doses below 1 mg/kg", "result": "no significant effect"}
    ]},
    {"smiles": "C[S+]([O-])c1ccc(-c2nc(-c3ccc(F)cc3)c(-c3ccncc3)[nH]2)cc1", "note": "(stereo not shown) [SB203580, 4-(4-Fluorophenyl)-2-(4-methylsulfinylphenyl)-5-(4-pyridyl)-1H-imidazole]", "values": [
      {"measurement": "minimal dose at which the proliferation rates were unaffected while the invasive capabilities of the cells were at least partially blocked", "setting": "[1]", "result": 1, "unit": "µM"},
      {"measurement": "primary LMB tumor growth determined by final tumor weight", "setting": "orthotopic LMB tumors", "result": "do not affect primary LMB tumor growth"},
      {"measurement": "JNK activation upon p38 inhibition (crosstalk)", "setting": "JNK; serum-induced, all four human and mouse TNBC cell lines", "result": "resulted in JNK activation"}
    ]},
    {"smiles": "CN1CCN(Cc2ccc(-c3cnc4[nH]cc(-c5ccc6[nH]ccc6c5)c4c3)cc2)CC1", "note": "[URMC-099, 3-(1H-indol-5-yl)-5-[4-[(4-methyl-1-piperazinyl)methyl]phenyl]-1H-pyrrolo[2,3-b]pyridine]", "values": [
      {"measurement": "minimal dose at which the proliferation rates were unaffected while the invasive capabilities of the cells were at least partially blocked", "setting": "[1]", "result": "0.01 to 0.05", "unit": "µM"},
      {"measurement": "primary LMB tumor growth determined by final tumor weight", "setting": "orthotopic LMB tumors", "result": "do not affect primary LMB tumor growth"},
      {"measurement": "invasion of MB436 cells", "setting": "MB436 cells", "result": "decreased invasion"},
      {"measurement": "p38 activation", "setting": "p38", "result": "decrease"},
      {"measurement": "JNK activation", "setting": "JNK; anisomycin-induced human cell lines (BM1, MB436)", "result": "decrease"},
      {"measurement": "invasion of BM1 cells", "setting": "BM1 cells [3]", "result": "decreased invasion"}
    ]}
  ]
}
